Reference: PMC9516332 (Frontiers in Oncology, 2022)
Read-outs that look alike come from different tables or passages of the source.

Tests used:
[1] = target: T1, panel of 255 wild-type kinases (Homo sapiens, UniProt O15264); conditions: cited from earlier work
T1 sequence (O15264 1-365): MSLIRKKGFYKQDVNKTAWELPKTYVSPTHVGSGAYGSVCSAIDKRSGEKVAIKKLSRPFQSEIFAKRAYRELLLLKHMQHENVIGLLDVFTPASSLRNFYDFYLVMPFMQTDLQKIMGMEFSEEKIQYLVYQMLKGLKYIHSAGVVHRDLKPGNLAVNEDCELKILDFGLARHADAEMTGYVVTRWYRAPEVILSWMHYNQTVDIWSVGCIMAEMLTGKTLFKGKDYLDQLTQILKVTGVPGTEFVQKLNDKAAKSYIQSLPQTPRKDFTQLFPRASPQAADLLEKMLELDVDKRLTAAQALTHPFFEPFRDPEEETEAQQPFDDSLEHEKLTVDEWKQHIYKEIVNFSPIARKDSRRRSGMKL

[2] = target: panel of 255 wild-type kinases (Homo sapiens, UniProt P05129); conditions: cited from earlier work
[3] = target: panel of 255 wild-type kinases (Homo sapiens, UniProt P17948); conditions: cited from earlier work
[4] = target: panel of 255 wild-type kinases (Homo sapiens, UniProt P45984); conditions: cited from earlier work
[5] = target: T2, panel of 255 wild-type kinases (Homo sapiens, UniProt Q02156); conditions: cited from earlier work
T2 sequence (Q02156 1-737): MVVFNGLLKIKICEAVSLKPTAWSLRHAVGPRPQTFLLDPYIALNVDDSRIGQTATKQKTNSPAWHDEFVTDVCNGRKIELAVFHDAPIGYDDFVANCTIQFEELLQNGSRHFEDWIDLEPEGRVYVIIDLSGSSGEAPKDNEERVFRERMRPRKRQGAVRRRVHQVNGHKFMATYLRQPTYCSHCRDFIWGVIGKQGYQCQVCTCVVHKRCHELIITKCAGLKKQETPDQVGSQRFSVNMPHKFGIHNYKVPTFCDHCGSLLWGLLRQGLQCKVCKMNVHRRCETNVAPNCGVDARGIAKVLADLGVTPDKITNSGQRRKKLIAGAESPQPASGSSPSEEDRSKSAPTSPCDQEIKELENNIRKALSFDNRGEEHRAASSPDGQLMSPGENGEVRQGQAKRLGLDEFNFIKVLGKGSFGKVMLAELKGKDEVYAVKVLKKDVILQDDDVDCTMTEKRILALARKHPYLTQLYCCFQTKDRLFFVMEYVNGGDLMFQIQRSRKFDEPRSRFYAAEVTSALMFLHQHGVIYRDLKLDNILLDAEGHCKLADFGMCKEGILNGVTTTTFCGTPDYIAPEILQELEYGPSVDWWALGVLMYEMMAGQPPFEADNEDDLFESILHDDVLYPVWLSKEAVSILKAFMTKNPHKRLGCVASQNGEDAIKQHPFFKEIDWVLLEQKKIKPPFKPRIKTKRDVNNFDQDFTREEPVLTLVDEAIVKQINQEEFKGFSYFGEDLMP

[6] = target: panel of 255 wild-type kinases (Homo sapiens, UniProt Q13882); conditions: cited from earlier work
[7] = target: panel of 255 wild-type kinases (Homo sapiens, UniProt Q15119); conditions: cited from earlier work
[8] = target: panel of 255 wild-type kinases (Homo sapiens, UniProt Q16816); conditions: cited from earlier work
[9] = target: panel of 255 wild-type kinases (Homo sapiens, UniProt Q5VT25); conditions: cited from earlier work
[10] = target: panel of 255 wild-type kinases (Homo sapiens, UniProt Q8TDX7); conditions: cited from earlier work
[11] = target: panel of 255 wild-type kinases (Homo sapiens, UniProt Q9NYY3); conditions: cited from earlier work
[12] = target: panel of 255 wild-type kinases (Homo sapiens, UniProt Q9UBS0); conditions: cited from earlier work
[13] = test system: 134 cancer cell lines
[14] = p38δ, 1 µmol/L single concentration, ref DOI: 10.1158/1535-7163.MCT-18-0877
[15] = kinase PKCγ, 1 µmol/L single concentration, ref DOI: 10.1158/1535-7163.MCT-18-0877
[16] = kinase FLT1, 1 µmol/L single concentration, ref DOI: 10.1158/1535-7163.MCT-18-0877
[17] = kinase JNK2, 1 µmol/L single concentration, ref DOI: 10.1158/1535-7163.MCT-18-0877
[18] = kinase PKCε, 1 µmol/L single concentration, ref DOI: 10.1158/1535-7163.MCT-18-0877
[19] = BRK kinase assay, 1 µmol/L single concentration, ref DOI: 10.1158/1535-7163.MCT-18-0877
[20] = kinase PDHK2, 1 µmol/L single concentration, ref DOI: 10.1158/1535-7163.MCT-18-0877
[21] = kinase PHKG1, 1 µmol/L single concentration, ref DOI: 10.1158/1535-7163.MCT-18-0877
[22] = MRCKα, 1 µmol/L single concentration, ref DOI: 10.1158/1535-7163.MCT-18-0877
[23] = NEK7, 1 µmol/L single concentration, ref DOI: 10.1158/1535-7163.MCT-18-0877
[24] = kinase PLK2, 1 µmol/L single concentration, ref DOI: 10.1158/1535-7163.MCT-18-0877
[25] = p70S6Kβ, 1 µmol/L single concentration, ref DOI: 10.1158/1535-7163.MCT-18-0877

| Structure (SMILES) | %-inhibition, p38δ [1, 14] | %-inhibition at 1 µmol/L, PKCγ [2, 15] | %-inhibition at 1 µmol/L, FLT1 [3, 16] | %-inhibition at 1 µmol/L, JNK2 [4, 17] | %-inhibition at 1 µmol/L, PKCε [5, 18] | %-inhibition at 1 µmol/L, PDHK2 [7, 20] | %-inhibition at 1 µmol/L, PHKG1 [8, 21] | %-inhibition, MRCKα [9, 22] | %-inhibition, NEK7 [10, 23] | %-inhibition at 1 µmol/L, PLK2 [11, 24] | %-inhibition, p70S6Kβ [12, 25] | IC50 [13] | further results |
| --- | --- | --- | --- | --- | --- | --- | --- | --- | --- | --- | --- | --- | --- |
| CC#CC(=O)N1CCC[C@H]1c1nc(-c2ccc(C(=O)Nc3ccccn3)cc2)c2c(N)nccn12 [acalabrutinib] | -1.74% | -7.43% | -1.14% | -1.85% | -9% | 0.164% | -4% | -7.47% | -11% | 2.47% | -14% | – | %-inhibition BRK [6, 19]: 51% |
| CCc1cc2c(cc1N1CCC(N3CCOCC3)CC1)C(C)(C)c1[nH]c3cc(C#N)ccc3c1C2=O [alectinib] | 0.128% | 0.135% | 2.23% | -0.468% | 10% | 0.393% | 78% | -0.84% | -1.33% | 6% | 9% | – | %-inhibition BRK [6, 19]: 9% |
| Cc1nc(NC(=O)N2CCC[C@H]2C(N)=O)sc1-c1ccnc(C(C)(C)C(F)(F)F)c1 [alpelisib] | – | – | – | – | – | – | – | – | – | – | – | 0.534 µM | – |
| COc1cc(N2CCC(N3CCN(C)CC3)CC2)ccc1Nc1ncc(Cl)c(Nc2ccccc2P(C)(C)=O)n1 [brigatinib] | – | – | – | – | – | – | – | – | – | – | – | – | %-inhibition, p38δ [1]: 0.87%; %-inhibition at 1 µmol/L, PKCγ [2]: 11%; %-inhibition at 1 µmol/L, FLT1 [3]: 74%; %-inhibition at 1 µmol/L, JNK2 [4]: 50%; %-inhibition at 1 µmol/L, PKCε [5]: 39%; %-inhibition BRK [6]: 103%; %-inhibition at 1 µmol/L, PDHK2 [7]: 2%; %-inhibition at 1 µmol/L, PHKG1 [8]: 96%; %-inhibition, MRCKα [9]: 18%; %-inhibition, NEK7 [10]: 1.23%; %-inhibition at 1 µmol/L, PLK2 [11]: 0.275%; %-inhibition, p70S6Kβ [12]: 98% |
| C[C@@H](Oc1cc(-c2cnn(C3CCNCC3)c2)cnc1N)c1c(Cl)ccc(F)c1Cl [crizotinib] | – | – | – | – | – | – | – | – | – | – | – | – | %-inhibition, p38δ ([1]; p38δ, 1 µmol/L single concentration, ref DOI: 10.1371/journal.pone.0092146): -3.41%; %-inhibition at 1 µmol/L, PKCγ ([2]; kinase PKCγ, 1 µmol/L single concentration, ref DOI: 10.1371/journal.pone.0092146): -0.662%; %-inhibition at 1 µmol/L, FLT1 ([3]; kinase FLT1, 1 µmol/L single concentration, ref DOI: 10.1371/journal.pone.0092146): 53%; %-inhibition at 1 µmol/L, JNK2 ([4]; kinase JNK2, 1 µmol/L single concentration, ref DOI: 10.1371/journal.pone.0092146): -2.59%; %-inhibition at 1 µmol/L, PKCε ([5]; kinase PKCε, 1 µmol/L single concentration, ref DOI: 10.1371/journal.pone.0092146): -7%; %-inhibition BRK ([6]; BRK kinase assay, 1 µmol/L single concentration, ref DOI: 10.1371/journal.pone.0092146): 15%; %-inhibition at 1 µmol/L, PDHK2 ([7]; kinase PDHK2, 1 µmol/L single concentration, ref DOI: 10.1371/journal.pone.0092146): -3.51%; %-inhibition at 1 µmol/L, PHKG1 ([8]; kinase PHKG1, 1 µmol/L single concentration, ref DOI: 10.1371/journal.pone.0092146): 2.74%; %-inhibition, MRCKα ([9]; MRCKα, 1 µmol/L single concentration, ref DOI: 10.1371/journal.pone.0092146): -8%; %-inhibition, NEK7 ([10]; NEK7, 1 µmol/L single concentration, ref DOI: 10.1371/journal.pone.0092146): -5.3%; %-inhibition at 1 µmol/L, PLK2 ([11]; kinase PLK2, 1 µmol/L single concentration, ref DOI: 10.1371/journal.pone.0092146): 1.1%; %-inhibition, p70S6Kβ ([12]; p70S6Kβ, 1 µmol/L single concentration, ref DOI: 10.1371/journal.pone.0092146): 6% |
| COc1cc2ncnc(Nc3ccc(F)c(Cl)c3)c2cc1NC(=O)/C=C/CN1CCCCC1 [dacomitinib] | – | – | – | – | – | – | – | – | – | – | – | 0.018 µM | – |
| C[C@H](Nc1ncnc2nc[nH]c12)c1cc2cccc(Cl)c2c(=O)n1-c1ccccc1 [duvelisib] | – | – | – | – | – | – | – | – | – | – | – | 4.24 µM | – |
| COC(=O)N[C@@H](C)CNc1nccc(-c2cn(C(C)C)nc2-c2cc(Cl)cc(NS(C)(=O)=O)c2F)n1 [encorafenib] | – | – | – | – | – | – | – | – | – | – | – | 0.592 µM | – |
| CN1CCN(c2ccc(C(=O)Nc3n[nH]c4ccc(Cc5cc(F)cc(F)c5)cc34)c(NC3CCOCC3)c2)CC1 [entrectinib] | – | – | – | – | – | – | – | – | – | – | – | 7.82 µM | – |
| CCc1nc(C(N)=O)c(Nc2ccc(N3CCC(N4CCN(C)CC4)CC3)c(OC)c2)nc1NC1CCOCC1 [gilteritinib] | – | – | – | – | – | – | – | – | – | – | – | 0.237 µM | – |
| C=CC(=O)N1CCC[C@@H](n2nc(-c3ccc(Oc4ccccc4)cc3)c3c(N)ncnc32)C1 [ibrutinib] | -3.68% | 0.797% | 73% | -2.83% | 8% | -1.08% | 1.53% | -0.621% | 0.69% | 1.72% | 0.87% | – | %-inhibition BRK [6]: 103% |
| CO[C@@H]1[C@H](N(C)C(=O)c2ccccc2)C[C@H]2O[C@]1(C)n1c3ccccc3c3c4c(c5c6ccccc6n2c5c31)C(=O)NC4 [midostaurin] | 3.36% | 91% | 95% | 8% | 84% | -1.18% | 97% | 14% | -11% | 2.68% | 69% | – | %-inhibition BRK [6, 19]: 11% |
| C=CC(=O)Nc1cc(Nc2nccc(-c3cn(C)c4ccccc34)n2)c(OC)cc1N(C)CCN(C)C [osimertinib] | -5.38% | 14% | 9% | -2.75% | -12% | -2% | 38% | -4.55% | 0.703% | 1.06% | 20% | – | %-inhibition BRK [6, 19]: 101% |
| FC(F)(F)c1ccc(CNc2ccc(Cc3c[nH]c4ncc(Cl)cc34)cn2)cn1 [pexidartinib] | – | – | – | – | – | – | – | – | – | – | – | > 31.6 µM | – |
